Laboratory results from publication PMC8834506, “Optimization of Thymidine Kinase-Based Safety Switch for Neural Cell Therapy” (Cells, 2022).
pEC50: −log10 of the molar value. Read-outs that look alike come from different tables or passages of the source.

System: hESC (HS420) expressing Ki67-SR39h D116E
Assay: ATP-based cell survival assay, GCV-induced cell death
Details: Homo sapiens
Description: Our first generation of suicide gene was engineered with the wild type thymidine kinase (wt-TK). To improve the suicide gene efficacy, we investigated different TK variants; wt-TK, 30-GMK, SR39, SR39h, and SR39h D116E variants. These sequences were chosen based on the analysis of the literature investigating HSV1-TK variants, as well as a gain of function mutation in the CMV UL-97 kinase. The efficacy of each variants was determined as percentage of cell survival following prodrug treatment compared to non-treated hESC. For this purpose, we used the ATP-based assay, which measures cellular ATP content and thereby provides a reliable estimate of the number of healthy cells. The 50% effective concentration (EC50) was defined as the drug concentration required to reduce the percentage of cell survival by 50%. […] In order to optimize our system, we first replaced the wt-TK by the 30-GMK variant, which is a fusion between the 30 TK variant and guanylate kinase (GMK). Note that GMK is mediating the second phosphorylation step of antiviral nucleoside analogs. […] Microbial codon usage might not yield optimal results in human cells. We therefore adapted the SR39 sequence to a typical human codon usage. […]
Figure 1 EC50 of ganciclovir (GCV) in cell expressing different thymidine kinase (TK) variants. […] Number of surviving cells was monitored using bioluminescent ATP-based assay. […]

In the case of `Nc1nc(O)c2ncn(COC(CO)CO)c2n1` [GCV, ganciclovir], the pEC50 (96 h, read-out: GCV EC50 in M) was 9.25 and the pEC50 (96 h GCV exposure, SR39h D116E variant, read-out: EC50 of GCV (cell survival)) was 9.22.
